{"source": "paper PMC5770468", "about": "“Cardiac glycoside/aglycones inhibit HIV-1 gene expression by a mechanism requiring MEK1/2-ERK1/2 signaling” (Scientific Reports, 2018)", "test_system": "HIV-1 Gag expression", "assay": "HIV-1 Gag-GFP expression in HeLa rtTA-HIV(Gag-GFP) cells", "format": "cell-based", "conditions": "220 nM", "procedure": "Figure 7 Activation of the MEK1/2-ERK1/2 signaling pathway suppresses HIV-1 gene expression. HeLa rtTA-HIV(Gag-GFP) cells were pre-treated overnight (~15 h) with/without an inhibitor of MEK1/2 (12 μM U0126, MEKi, white), p38α/β/β2 (15 μM SB203580, p38i, light gray), JNK1/2/3 (1.25 μM SP600125, JNKi, hatched), or NCX (5 μM KB-R7943, NCXi, gray) and treated with a MEK1/2-ERK1/2 activator, anisomycin, to isolate the pathway signal as described (and run in parallel for verification of inhibitor activity) in Figures 6 and 5d–f. Cells were monitored for HIV-1 gene expression by detecting Gag-GFP fluorescence in cell lysates (35 μg) resolved on reducing SDS-PAGE, levels of ERK activation by immunoblotting of phospho- and total-ERK from cell lysates, and extent of viral RNA expression by qRT-PCR of mRNAs extracted. […] RNAs were quantified by qRT-PCR as described in Figures 4a,b. […]\nUsing the same methods and conditions described for HeLa rtTA-HIV-ΔMls cells, HeLa rtTA-HIV(Gag-GFP) cells were seeded in 48-/12-well plates and pretreated with/without pathway inhibitor prior to treatment with drug/compounds and Dox. […] HIV-1 gene expression was determined by detecting Gag-GFP fluorescence in cells by plate scans using a Typhoon Imager 9400 (Amersham Biosciences) or Typhoon FLA 9400 (GE) on ImageQuant, cell lysates by SDS-PAGE captured on ChemiDoc MP, or cell lysates by p24^CA ELISA. […]", "data": [{"smiles": "COc1ccc(C[C@H]2NC[C@H](O)[C@H]2OC(C)=O)cc1", "note": "[anisomycin, Anisomycin]", "values": [{"measurement": "HIV-1 Gag expression", "result": "inhibited"}]}]}
